According to PubChem BioAssay AID2060508 (Molecular Pharmacology Branch, DTP, NCI, 2025):

Test system: 454973-116-R2-J3-PDC spheroids, viability, % test/control
Test: Anticancer human tumor 454973-116-R2-J3-PDC patient-derived pancreatic carcinoma cell line growth inhibition [GQUAD]
Settings: spheroids with HUVEC and MSC; for IC50: curve of first compound; for viability, T/C: stronger effect = lower value
Text: DNA G-quadruplex Stabilizer Agents in Combinations in Complex Spheroids
A high-throughput screen of multi-cell type tumor spheroids was designed to identify active combinations of DNA G-quadruplex stabilizer agents and targeted small molecules. Complex spheroids include a stromal component modeled by human endothelial cells (HUVEC) and fibroblasts modeled by human mesenchymal stem cells (MSCs). The concentration ranges selected for each drug and investigational agent were based upon clinically achievable concentrations if the clinical Cmax of the agent was known.
Compounds. The drugs and investigational agents: pidnarulex (CX-5461; NSC782164), APTO-253 (NSC789042), BRACO-19 (NSC847499), peposertib (NSC802822), ceralasertib (NSC780249), elimusertib (NSC800525), camonsertib (NSC841442), AZD-1390 (NSC803789), olaparib (NSC753686), talazoparib (NSC767125), ART-558 (NSC835418), sotorasib (NSC818433), MRTX-1133 (NSC836407), SN-38 (NSC673596), topotecan (NSC609699), etoposide (NSC141540), doxorubicin (NSC123127), gemcitabine (NSC613327), 5-fluorouracil (NSC19893), paclitaxel (NSC125973), vemurafenib (NSC761431), panobinostat (NSC761190), R-306465 (JNJ-16241199; NSC773264), adavosertib (NSC754352), TP-3654 (NSC805149), carboplatin (NSC241240), KSQ-4279 (NSC840948), and staurosporine (NSC755774) were obtained from the National Cancer Institute (NCI) Developmental Therapeutics Program Chemical Repository (34). The FDA-approved anticancer drug set is available from the NCI Developmental Therapeutics Program. […] The stock solutions were prepared in dimethyl sulfoxide (DMSO, Sigma-Aldrich, St. Louis, MO, cat. D2650) at 800-fold the tested concentration and stored at -70 degrees C prior to their use. All drugs and investigational agents were tested over a range starting from a high concentration at or near the clinical Cmax and decreasing in half-log increments. If the clinical Cmax for an agent had not been determined, the highest concentration tested was 10 microM.
2.3 Cell Culture. All cells were maintained in an incubator at 37 degrees C and 5% CO2 with 95% humidity. The PDC lines were cultured according to standard operating procedures established by the NCI PDMR. All PDCs were thawed and cultured in Matrigel-coated flasks prepared with a working solution of 1X Ham's F-12 nutrient mix, without supplementation (Invitrogen, cat. 11765054), 100 U/mL penicillin-streptomycin (Invitrogen, cat. 15140122), and 2.5% Matrigel (Corning Inc., cat. 354248) for the first three passages. The 857933-349-R-J2-PDC line was cultured in 6C/Colon 1B media, which includes advanced DMEM/F-12 (Thermo Fisher Scientific, cat. 12634028), 10 mM HEPES (Thermo Fisher Scientific, cat. 15630080), 1X GlutaMAX supplement (Thermo Fisher Scientific, cat. 35050061), 0.1 mg/mL primocin (InvivoGen, cat. ant-pm-2), 10% defined fetal bovine serum, heat inactivated (HyClone Laboratories Inc., cat. SH30070.03HI), 50% L-WRN conditioned media (ATCC, cat. CRL-3276), 1.25 mM N-Acetyl-L-cysteine (Sigma-Aldrich, cat. A9165), 10 mM nicotinamide (Sigma-Aldrich, cat. N0636), 1X B-27 supplement (Thermo Fisher Scientific, cat. 17504044), 1X N-2 supplement (Thermo Fisher Scientific, cat. 17502048), 10 microM Y-27632 dihydrochloride (Tocris Bioscience, cat. 1254), and 50 ng/mL human EGF recombinant protein (Thermo Fisher Scientific, cat. PHG0311). The 485176-168-R4-J1-PDC line was cultured in Panc media, which includes all 6C/Colon 1B media components plus 100 ng/mL human FGF-10 (Thermo Fisher Scientific, cat. 100-26), 500 nM SB-431542 (Selleckchem, cat. S1067), and gastrin (Tocris, cat. 3006).
[…]

[1] = second compound 0.0316 µM, first compound 0.0316 µM
[2] = second compound 0.0316 µM, first compound 0.1 µM
[3] = second compound 0.0316 µM, first compound 0.316 µM
[4] = second compound 0.0316 µM, first compound 1 µM
[5] = second compound 0.0316 µM, first compound 3.16 µM
[6] = second compound 0.0316 µM, first compound 10 µM
[7] = second compound 0.1 µM, first compound 0.0316 µM
[8] = second compound 0.1 µM, first compound 0.1 µM
[9] = second compound 0.1 µM, first compound 0.316 µM
[10] = second compound 0.1 µM, first compound 1 µM
[11] = second compound 0.1 µM, first compound 3.16 µM
[12] = second compound 0.1 µM, first compound 10 µM
[13] = second compound 0.316 µM, first compound 0.0316 µM
[14] = second compound 0.316 µM, first compound 0.1 µM
[15] = second compound 0.316 µM, first compound 0.316 µM
[16] = second compound 0.316 µM, first compound 1 µM
[17] = second compound 0.316 µM, first compound 3.16 µM
[18] = second compound 0.316 µM, first compound 10 µM
[19] = second compound 1 µM, first compound 0.0316 µM
[20] = second compound 1 µM, first compound 0.1 µM
[21] = second compound 1 µM, first compound 0.316 µM
[22] = second compound 1 µM, first compound 1 µM
[23] = second compound 1 µM, first compound 3.16 µM
[24] = second compound 1 µM, first compound 10 µM
[25] = second compound 3.16 µM, first compound 0.0316 µM
[26] = second compound 3.16 µM, first compound 0.1 µM
[27] = second compound 3.16 µM, first compound 0.316 µM
[28] = second compound 3.16 µM, first compound 1 µM
[29] = second compound 3.16 µM, first compound 3.16 µM
[30] = second compound 3.16 µM, first compound 10 µM
[31] = second compound 10 µM, first compound 0.0316 µM
[32] = second compound 10 µM, first compound 0.1 µM
[33] = second compound 10 µM, first compound 0.316 µM
[34] = second compound 10 µM, first compound 1 µM
[35] = second compound 10 µM, first compound 3.16 µM
[36] = second compound 10 µM, first compound 10 µM
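Further: spheroids exposed to compounds for seven days.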

## CC1COCCN1c1cc(-c2ccnn2C)c2ccnc(-c3ccn[nH]3)c2n1 (centres undefined) + CN(C)c1ccc(Nc2c3ccc(NC(=O)CCN4CCCC4)cc3nc3cc(NC(=O)CCN4CCCC4)ccc23)cc1
Second compound 0.0316 µM
  IC50: 182 nM
Second compound 0.1 µM
  IC50: 190 nM
Second compound 0.316 µM
  IC50: 190 nM
Second compound 1 µM
  IC50: 171 nM
Second compound 3.16 µM
  IC50: 141 nM
Second compound 10 µM
  IC50: 79 nM
[1]
  viability, T/C: 97.9%
[2]
  viability, T/C: 66.8%
[3]
  viability, T/C: 35.2%
[4]
  viability, T/C: 23%
[5]
  viability, T/C: 24%
[6]
  viability, T/C: 29.4%
[7]
  viability, T/C: 102%
[8]
  viability, T/C: 72%
[9]
  viability, T/C: 32.9%
[10]
  viability, T/C: 22.9%
[11]
  viability, T/C: 23.1%
[12]
  viability, T/C: 26.1%
[13]
  viability, T/C: 94.3%
[14]
  viability, T/C: 74.1%
[15]
  viability, T/C: 31%
[16]
  viability, T/C: 21.3%
[17]
  viability, T/C: 21.7%
[18]
  viability, T/C: 29.4%
[19]
  viability, T/C: 91.3%
[20]
  viability, T/C: 63.1%
[21]
  viability, T/C: 36.2%
[22]
  viability, T/C: 20.8%
[23]
  viability, T/C: 22.6%
[24]
  viability, T/C: 27.5%
[25]
  viability, T/C: 87%
[26]
  viability, T/C: 55.5%
[27]
  viability, T/C: 38%
[28]
  viability, T/C: 21.3%
[29]
  viability, T/C: 26.2%
[30]
  viability, T/C: 27.1%
[31]
  viability, T/C: 69.8%
[32]
  viability, T/C: 45.5%
[33]
  viability, T/C: 31.4%
[34]
  viability, T/C: 27.6%
[35]
  viability, T/C: 24.1%
[36]
  viability, T/C: 27%

## CC1COCCN1c1cc(C2(O)CC3CCC(C2)O3)c2cnn(-c3ccn[nH]3)c2n1 (centres undefined) + CN(C)c1ccc(Nc2c3ccc(NC(=O)CCN4CCCC4)cc3nc3cc(NC(=O)CCN4CCCC4)ccc23)cc1
Second compound 0.0316 µM
  IC50: 176 nM
Second compound 0.1 µM
  IC50: 174 nM
Second compound 0.316 µM
  IC50: 154 nM
Second compound 1 µM
  IC50: 146 nM
Second compound 3.16 µM
  IC50: 167 nM
Second compound 10 µM
  IC50: 99.5 nM
[1]
  viability, T/C: 106%
[2]
  viability, T/C: 63.8%
[3]
  viability, T/C: 35.4%
[4]
  viability, T/C: 23.3%
[5]
  viability, T/C: 21.4%
[6]
  viability, T/C: 15%
[7]
  viability, T/C: 98.6%
[8]
  viability, T/C: 66.8%
[9]
  viability, T/C: 31.2%
[10]
  viability, T/C: 23.4%
[11]
  viability, T/C: 22.4%
[12]
  viability, T/C: 15%
[13]
  viability, T/C: 99.5%
[14]
  viability, T/C: 61.5%
[15]
  viability, T/C: 30.6%
[16]
  viability, T/C: 21%
[17]
  viability, T/C: 23%
[18]
  viability, T/C: 13.1%
[19]
  viability, T/C: 95.3%
[20]
  viability, T/C: 58.4%
[21]
  viability, T/C: 33.1%
[22]
  viability, T/C: 19.5%
[23]
  viability, T/C: 20.1%
[24]
  viability, T/C: 15.5%
[25]
  viability, T/C: 84%
[26]
  viability, T/C: 63.2%
[27]
  viability, T/C: 33.6%
[28]
  viability, T/C: 19.9%
[29]
  viability, T/C: 22.4%
[30]
  viability, T/C: 14.9%
[31]
  viability, T/C: 65.7%
[32]
  viability, T/C: 53%
[33]
  viability, T/C: 30.4%
[34]
  viability, T/C: 24.4%
[35]
  viability, T/C: 23%
[36]
  viability, T/C: 11.2%
